Reference: ChEMBL document CHEMBL1201862, “PubChem BioAssay data set” (2004)
One block for each molecule: values may come before it. The source made the active and inactive calls.

Tests used:
[1] = biological target: T1, Sphingosine 1-phosphate receptor 1 (Homo sapiens, UniProt P21453); test: Fluorescence-based counterscreen assay for S1P4 agonists: Cell-based dose response high throughput screening assay to identify agonists of the Sphingosine 1-Phosphate Receptor 1 (S1P1). [Related pubchem assays (depositor defined):AID1509, AID1523, AID1801, AID463107, AID463118, AID463119, AID463122, AID463123, AID463129, AID463225, AID504400, AID504460]; type: functional
[2] = biological target: Sphingosine 1-phosphate receptor 4 (Homo sapiens, UniProt O95977); test: Fluorescence dose response cell-based high throughput screening assay for agonists of the Sphingosine 1-Phosphate Receptor 4 (S1P4). [Related pubchem assays: 1509 (Primary screen.), 1523 (Confirmation screen in triplicates.)]; type: functional
[3] = biological target: Sphingosine 1-phosphate receptor 5 (Homo sapiens, UniProt Q9H228); test: (§1) Late-stage fluorescence-based dose-response cell-based assay to identify agonists of the Sphingosine 1-Phosphate Receptor 4 (S1P4): Sphingosine 1-Phosphate Receptor 5 (S1P5) counterscreen assay. [Related pubchem assays (depositor defined):AID1509, AID1523, AID1563, AID1686, AID1701, AID1801, AID463107, AID463225, AID504400]; type: functional
[4] = biological target: T1, Sphingosine 1-phosphate receptor 1; test: as §1, with “1 (S1P1)” for “5 (S1P5)”; type: functional
[5] = biological target: Sphingosine 1-phosphate receptor 2 (Homo sapiens, UniProt O95136); test: as §1, with “2 (S1P2)” for “5 (S1P5)”; type: functional
[6] = biological target: Sphingosine 1-phosphate receptor 3 (Homo sapiens, UniProt Q99500); test: as §1, with “3 (S1P3)” for “5 (S1P5)”; type: functional
[7] = biological target: Cytochrome P450 2C19 (Homo sapiens, UniProt P33261); test: Cytochrome panel assay with activity outcomes. Panel member name: p450-cyp2c19 Compounds with AC50 equal or less than 10 uM are considered active; type: functional
[8] = biological target: Cytochrome P450 2D6 (Homo sapiens, UniProt P10635);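 further: CYP2D6 member of a cytochrome P450 panel assay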
[9] = test system: HEK293; test: EBV LMP1 TES2 canonical NF-kB signalling blockers – cell-based, HEK293, luciferase, cherry-pick, dose response (AID 588343); type: functional; settings: Homo sapiens
[10] = test system: H9c2; test: cells; type: functional, cell-based; settings: Rattus norvegicus, H9c2, Myocardium;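 further: confirmatory concentration-response retest of ultra-high-throughput screening hits for modulation of myocardial damage; cell death induced by hydrogen peroxide oxidative stress; compound pretreatment for 60 min then peroxide exposure for 2 h; potency is for protecting the cells against peroxide damage rather than for killing them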
[11] = biological target: Lysine-specific demethylase 4A (Homo sapiens, UniProt O75164); test: inhibition of JMJD2A H3K9me3 demethylation – biochemical, DELFIA europium, cherry-picked samples, selectivity assay for GASC-1 inhibitor project, dose response (AID 488840)
[12] = test system: HEK293; test: cells; type: functional, cell-based; settings: Homo sapiens
[13] = biological target: Nuclear receptor subfamily 0 group B member 1 (Homo sapiens, UniProt P51843); test: Luminescence-based cell-based high throughput dose response assay for inhibitors of the orphan nuclear receptor subfamily 0, group B, member 1 (DAX1; NR0B1). [Related pubchem assays (depositor defined):AID504766, AID504790]; type: functional
[14] = biological target: G-protein coupled receptor 35 (Homo sapiens, UniProt Q9HC97); test: SAR Analysis for the identification of Selective Antagonists of ERK1/2 Activity in GPR35-Overexpressing U2OS Cells. [Related pubchem assays: 2079, 2058 ]; type: functional, cell-based
[15] = biological target: G-protein coupled receptor 55 (Homo sapiens, UniProt Q9Y2T6); test: blockers of GPR55 signalling, imaged – imaging, image-based, counter-screen for GPR35 antagonist project, SAR follow-up (AID 2397); type: functional
[16] = biological target: Tyrosine-protein phosphatase non-receptor type 7 (Homo sapiens, UniProt P35236); type: functional
[17] = biological target: Glyceraldehyde-3-phosphate dehydrogenase (Homo sapiens, UniProt P04406)
[18] = biological target: T2, Dual specificity protein phosphatase 6 (Rattus norvegicus, UniProt Q64346)
T2 sequence (Q64346 whole entry): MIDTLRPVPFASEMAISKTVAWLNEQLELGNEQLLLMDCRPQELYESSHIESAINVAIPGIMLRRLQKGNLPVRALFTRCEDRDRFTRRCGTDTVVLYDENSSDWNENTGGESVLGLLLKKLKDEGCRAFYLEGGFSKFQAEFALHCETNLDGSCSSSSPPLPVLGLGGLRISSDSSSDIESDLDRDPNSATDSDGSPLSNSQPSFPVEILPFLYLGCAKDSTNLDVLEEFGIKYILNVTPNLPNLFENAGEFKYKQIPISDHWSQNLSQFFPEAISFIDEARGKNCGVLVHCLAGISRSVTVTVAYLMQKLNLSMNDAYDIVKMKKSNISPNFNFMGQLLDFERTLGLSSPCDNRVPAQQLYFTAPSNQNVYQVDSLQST

[19] = biological target: T2, Dual specificity protein phosphatase 6; type: functional
[20] = Luminescence Cell-Based Dose Retest to Confirm Inhibitors of Cancer Stem Cells. [Related pubchem assays (depositor defined):AID2717, AID2721]; type: functional; settings: Homo sapiens
[21] = viability loss of HMLE_sh_eGFP cells – cell-based, luminescence, counter-screen for HMLE_sh_ECad selective toxicity project, dose response (AID 463074); type: functional, Homo sapiens;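 further: HMLE human mammary epithelial cells expressing control shRNA against eGFP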
[22] = biological target: Cytochrome P450 2C9 (Homo sapiens, UniProt P11712)
Chain of Cytochrome P450 2C9 (P11712 whole entry): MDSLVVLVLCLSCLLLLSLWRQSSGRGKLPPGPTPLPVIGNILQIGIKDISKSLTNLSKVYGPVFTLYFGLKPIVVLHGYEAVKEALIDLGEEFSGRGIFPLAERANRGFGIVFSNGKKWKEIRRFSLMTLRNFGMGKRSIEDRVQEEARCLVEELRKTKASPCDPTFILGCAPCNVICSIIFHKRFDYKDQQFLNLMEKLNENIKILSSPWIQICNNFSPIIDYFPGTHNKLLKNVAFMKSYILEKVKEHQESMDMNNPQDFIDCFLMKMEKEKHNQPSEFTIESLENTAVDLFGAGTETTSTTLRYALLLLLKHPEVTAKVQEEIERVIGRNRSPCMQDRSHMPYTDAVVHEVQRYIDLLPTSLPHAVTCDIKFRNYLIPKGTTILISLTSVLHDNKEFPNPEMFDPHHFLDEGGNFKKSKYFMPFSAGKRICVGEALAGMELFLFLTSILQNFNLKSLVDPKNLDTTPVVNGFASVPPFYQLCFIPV

T1 sequence (P21453 whole entry): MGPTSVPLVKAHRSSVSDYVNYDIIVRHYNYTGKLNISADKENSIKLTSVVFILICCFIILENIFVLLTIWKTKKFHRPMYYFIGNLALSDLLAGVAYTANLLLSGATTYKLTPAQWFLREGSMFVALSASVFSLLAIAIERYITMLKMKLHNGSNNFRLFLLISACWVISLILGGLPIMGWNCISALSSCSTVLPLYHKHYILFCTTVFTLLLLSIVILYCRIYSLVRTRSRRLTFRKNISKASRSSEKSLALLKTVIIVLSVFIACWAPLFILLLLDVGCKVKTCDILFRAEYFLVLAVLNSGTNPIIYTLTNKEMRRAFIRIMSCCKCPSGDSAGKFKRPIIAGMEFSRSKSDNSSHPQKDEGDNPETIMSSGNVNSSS
Chain of Lysine-specific demethylase 4A (O75164 whole entry): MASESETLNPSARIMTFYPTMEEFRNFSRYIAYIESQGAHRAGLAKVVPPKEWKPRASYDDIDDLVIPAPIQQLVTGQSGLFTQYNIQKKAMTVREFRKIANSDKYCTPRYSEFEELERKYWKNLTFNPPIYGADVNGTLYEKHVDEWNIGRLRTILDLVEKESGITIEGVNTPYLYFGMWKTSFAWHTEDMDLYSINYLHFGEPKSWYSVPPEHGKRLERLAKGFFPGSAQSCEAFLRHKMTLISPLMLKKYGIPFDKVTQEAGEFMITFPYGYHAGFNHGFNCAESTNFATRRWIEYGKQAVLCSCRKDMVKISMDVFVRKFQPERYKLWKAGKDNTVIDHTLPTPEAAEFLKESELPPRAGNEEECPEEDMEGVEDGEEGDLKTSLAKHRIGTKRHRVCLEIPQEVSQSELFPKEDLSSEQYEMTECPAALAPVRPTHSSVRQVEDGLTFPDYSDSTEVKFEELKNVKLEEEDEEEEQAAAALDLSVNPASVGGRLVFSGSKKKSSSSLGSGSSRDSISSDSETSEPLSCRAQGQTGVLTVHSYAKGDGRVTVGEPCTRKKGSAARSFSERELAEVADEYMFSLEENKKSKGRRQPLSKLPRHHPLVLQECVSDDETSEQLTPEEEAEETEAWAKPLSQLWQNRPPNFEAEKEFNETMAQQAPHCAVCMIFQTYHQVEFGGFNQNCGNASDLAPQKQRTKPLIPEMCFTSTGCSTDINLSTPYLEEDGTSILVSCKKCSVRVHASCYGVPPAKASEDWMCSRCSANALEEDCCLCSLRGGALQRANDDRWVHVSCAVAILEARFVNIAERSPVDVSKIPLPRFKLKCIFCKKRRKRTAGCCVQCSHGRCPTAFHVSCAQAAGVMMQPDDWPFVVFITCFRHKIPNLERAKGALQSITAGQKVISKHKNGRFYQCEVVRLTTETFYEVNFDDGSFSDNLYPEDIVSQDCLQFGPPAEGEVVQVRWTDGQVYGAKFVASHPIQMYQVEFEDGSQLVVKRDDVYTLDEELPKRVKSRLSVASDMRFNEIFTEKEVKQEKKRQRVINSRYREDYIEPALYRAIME
Chain of G-protein coupled receptor 55 (Q9Y2T6 whole entry): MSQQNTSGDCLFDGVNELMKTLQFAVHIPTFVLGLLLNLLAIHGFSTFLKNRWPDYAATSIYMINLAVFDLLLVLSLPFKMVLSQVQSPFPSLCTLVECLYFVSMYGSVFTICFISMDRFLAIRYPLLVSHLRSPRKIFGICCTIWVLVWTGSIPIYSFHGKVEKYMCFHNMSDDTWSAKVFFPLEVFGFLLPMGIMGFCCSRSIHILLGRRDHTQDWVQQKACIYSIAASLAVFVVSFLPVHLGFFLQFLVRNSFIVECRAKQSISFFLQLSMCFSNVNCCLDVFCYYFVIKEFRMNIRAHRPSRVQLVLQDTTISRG
Chain of Nuclear receptor subfamily 0 group B member 1 (P51843 whole entry): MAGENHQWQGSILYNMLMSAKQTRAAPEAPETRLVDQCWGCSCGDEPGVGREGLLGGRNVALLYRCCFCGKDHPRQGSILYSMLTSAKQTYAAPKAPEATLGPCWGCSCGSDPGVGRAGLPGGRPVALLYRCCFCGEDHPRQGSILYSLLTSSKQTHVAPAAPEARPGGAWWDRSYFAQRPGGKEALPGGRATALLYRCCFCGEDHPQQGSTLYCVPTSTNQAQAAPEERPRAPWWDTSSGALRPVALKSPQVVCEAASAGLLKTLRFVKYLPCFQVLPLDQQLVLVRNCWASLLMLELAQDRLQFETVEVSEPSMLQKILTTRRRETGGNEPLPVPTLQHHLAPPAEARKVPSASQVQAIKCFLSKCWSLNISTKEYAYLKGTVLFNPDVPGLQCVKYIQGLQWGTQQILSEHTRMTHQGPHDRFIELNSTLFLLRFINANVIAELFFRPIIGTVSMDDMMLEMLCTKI
Chain of Sphingosine 1-phosphate receptor 2 (O95136 whole entry): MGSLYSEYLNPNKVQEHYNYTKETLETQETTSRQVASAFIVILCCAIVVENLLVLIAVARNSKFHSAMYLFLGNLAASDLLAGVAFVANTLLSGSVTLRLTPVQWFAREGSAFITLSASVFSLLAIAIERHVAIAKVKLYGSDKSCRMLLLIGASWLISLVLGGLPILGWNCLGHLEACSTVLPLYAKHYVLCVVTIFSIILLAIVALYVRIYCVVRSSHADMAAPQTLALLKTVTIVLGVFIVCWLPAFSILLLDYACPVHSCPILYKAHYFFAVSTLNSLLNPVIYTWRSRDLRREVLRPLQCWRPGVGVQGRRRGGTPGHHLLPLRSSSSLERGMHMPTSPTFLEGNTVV
Chain of Sphingosine 1-phosphate receptor 3 (Q99500 whole entry): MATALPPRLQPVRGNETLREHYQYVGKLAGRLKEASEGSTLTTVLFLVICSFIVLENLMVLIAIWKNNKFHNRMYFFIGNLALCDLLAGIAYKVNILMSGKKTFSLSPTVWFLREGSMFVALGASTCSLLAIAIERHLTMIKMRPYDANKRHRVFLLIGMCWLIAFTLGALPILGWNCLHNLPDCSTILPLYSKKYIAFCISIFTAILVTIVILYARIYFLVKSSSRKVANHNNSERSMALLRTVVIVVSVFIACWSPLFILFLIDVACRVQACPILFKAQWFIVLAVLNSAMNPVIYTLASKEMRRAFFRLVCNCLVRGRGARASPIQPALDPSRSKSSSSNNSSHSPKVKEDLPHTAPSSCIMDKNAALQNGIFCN
Chain of G-protein coupled receptor 35 (Q9HC97 whole entry): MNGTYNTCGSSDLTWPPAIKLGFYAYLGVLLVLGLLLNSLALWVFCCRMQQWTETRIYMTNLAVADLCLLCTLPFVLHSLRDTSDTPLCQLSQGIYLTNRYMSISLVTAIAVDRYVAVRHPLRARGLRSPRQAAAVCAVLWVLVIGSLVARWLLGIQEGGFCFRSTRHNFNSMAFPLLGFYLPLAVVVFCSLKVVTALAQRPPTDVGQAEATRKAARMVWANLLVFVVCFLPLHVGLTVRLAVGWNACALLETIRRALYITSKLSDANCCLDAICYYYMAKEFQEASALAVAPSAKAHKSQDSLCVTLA
Chain of Cytochrome P450 2C19 (P33261 whole entry): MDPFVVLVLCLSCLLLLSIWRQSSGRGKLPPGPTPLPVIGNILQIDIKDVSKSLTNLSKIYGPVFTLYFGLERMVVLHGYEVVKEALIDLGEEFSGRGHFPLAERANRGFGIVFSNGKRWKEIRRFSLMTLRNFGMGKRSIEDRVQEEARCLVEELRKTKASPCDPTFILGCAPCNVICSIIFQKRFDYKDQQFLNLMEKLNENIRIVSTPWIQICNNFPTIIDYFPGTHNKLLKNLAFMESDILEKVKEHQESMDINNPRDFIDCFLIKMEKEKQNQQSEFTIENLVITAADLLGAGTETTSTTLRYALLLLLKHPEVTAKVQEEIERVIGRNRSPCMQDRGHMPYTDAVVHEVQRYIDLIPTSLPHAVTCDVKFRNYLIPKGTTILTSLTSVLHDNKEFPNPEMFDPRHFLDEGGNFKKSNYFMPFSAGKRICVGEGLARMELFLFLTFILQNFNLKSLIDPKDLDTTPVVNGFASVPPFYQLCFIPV
Chain of Sphingosine 1-phosphate receptor 5 (Q9H228 whole entry): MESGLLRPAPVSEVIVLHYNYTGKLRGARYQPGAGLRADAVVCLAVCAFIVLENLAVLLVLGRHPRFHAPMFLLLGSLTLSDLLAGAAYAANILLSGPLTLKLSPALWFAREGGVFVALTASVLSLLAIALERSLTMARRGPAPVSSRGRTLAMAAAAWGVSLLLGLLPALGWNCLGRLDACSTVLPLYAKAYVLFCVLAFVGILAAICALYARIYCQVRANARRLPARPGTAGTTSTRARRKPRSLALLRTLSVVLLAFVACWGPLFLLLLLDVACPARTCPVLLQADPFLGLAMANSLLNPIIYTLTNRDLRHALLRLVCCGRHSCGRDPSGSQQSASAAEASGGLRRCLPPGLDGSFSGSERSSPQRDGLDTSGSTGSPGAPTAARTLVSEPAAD

Compound: CCn1nc(C(=O)Nc2nc(-c3ccccn3)cs2)c2ccccc2c1=O
AC50 [9]: 11.4 µM (active)
IC50 [10]: 16.2 µM (active)

Compound: Cc1ccc2nc3c(cc2c1)c(NC(=O)c1ccco1)nn3CC(C)C
IC50 [12]: > 67.5 µM (inactive)
IC50 [13]: > 67.5 µM (inactive)

Compound: CCC(CC)c1nnc(NC(=O)Cc2cccs2)s1
IC50 [16]: 88 µM (active)
IC50 [17]: 99.7 µM (active)
IC50 [18]: > 100 µM (inactive)
IC50 [19]: > 100 µM (inactive)

Compound: Cc1nn(-c2ccc(F)cc2)c(Cl)c1/C=C(\CCC(=O)O)c1nc2ccccc2s1
AC50 [20]: 18.7 µM (active)
AC50 [21]: 23.5 µM (active)
AC50 [22]: 39.8 µM (inconclusive)

Other lines, results leading:

EC50 [1]: > 49.8 µM (inactive)
EC50 [2]: 529 nM (active)
EC50 [3]: > 50 µM (inactive)
EC50 [4]: > 50 µM (inactive)
EC50 [5]: > 50 µM (inactive)
EC50 [6]: > 50 µM (inactive)
Compound: Cc1ccc(OCCOc2ccc(Cl)cc2Cl)c([N+](=O)[O-])n1

AC50 [7]: inconclusive
AC50 [8]: inconclusive
Compound: CC1=C(C(=O)O)N2C(=O)[C@@H](NC(=O)[C@@H](N)C3=CCC=CC3)[C@@H]2SC1

AC50 [11]: > 60 µM (inactive)
Compound: CN(C(=O)c1ccc(NC(=O)Cc2ccc(NC(=O)C3CCN(C(=O)C4CCC4)CC3)cc2)cc1)C1CC1

IC50 [14]: 4.58 µM (active)
IC50 [15]: 12.3 µM (inactive)
Compound: O=C(Nc1ccc2nc(SCc3ccccc3)sc2c1)c1ccccc1C(=O)N1CCOCC1
